Experimental data reported in ChEMBL document CHEMBL5465560, “Selectivity Literature for EUbOPEN Chemogenomic Library” (2024).
One block for each compound: values may come before it.

Experiments:
[1] = target: Mitogen-activated protein kinase kinase kinase 20 (Homo sapiens) (UniProt Q9NYL2); assay: Selectivity interaction (LanthaScreen Eu Kinase Binding Assay) EUB0001632a MAP3K20; details: at 10 µM
[2] = target: T1, Serine/threonine-protein kinase 17A (Homo sapiens) (UniProt Q9UEE5); assay: Selectivity interaction (LanthaScreen Eu Kinase Binding Assay) EUB0001632a STK17A; details: at 10 µM
T1 sequence (whole entry): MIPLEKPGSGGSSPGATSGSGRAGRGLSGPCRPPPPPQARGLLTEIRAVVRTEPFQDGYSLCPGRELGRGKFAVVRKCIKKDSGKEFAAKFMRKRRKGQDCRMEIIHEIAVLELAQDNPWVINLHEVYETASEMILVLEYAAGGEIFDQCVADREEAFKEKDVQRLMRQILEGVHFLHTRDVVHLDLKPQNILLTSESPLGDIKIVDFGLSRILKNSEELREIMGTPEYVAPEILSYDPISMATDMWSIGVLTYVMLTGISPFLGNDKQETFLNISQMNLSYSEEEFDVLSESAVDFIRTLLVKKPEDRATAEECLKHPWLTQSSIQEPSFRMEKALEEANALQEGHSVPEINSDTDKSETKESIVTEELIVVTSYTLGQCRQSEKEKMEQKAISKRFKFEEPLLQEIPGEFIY

[3] = target: Leukocyte tyrosine kinase receptor (Homo sapiens, UniProt P29376); assay: Selectivity interaction (KinomeScan (DiscoverX)) EUB0000607a LTK; details: at 10 µM
[4] = target: Citron Rho-interacting kinase (Homo sapiens) (UniProt O14578); assay: Selectivity interaction (KinomeScan (DiscoverX)) EUB0000607a CIT; details: at 10 µM
[5] = target: Tyrosine-protein kinase HCK (Homo sapiens) (UniProt P08631); assay: Selectivity interaction (SelectScreen profiling (Invitrogen)) EUB0000607a HCK; details: at 2 µM
[6] = target: T2, Tyrosine-protein kinase ABL2 (Homo sapiens, UniProt P42684); assay: Selectivity interaction (Upstate Kinase Profiler service (Millipore)) EUB0000056c ABL2; details: at 1 µM
T2 sequence (P42684 whole entry): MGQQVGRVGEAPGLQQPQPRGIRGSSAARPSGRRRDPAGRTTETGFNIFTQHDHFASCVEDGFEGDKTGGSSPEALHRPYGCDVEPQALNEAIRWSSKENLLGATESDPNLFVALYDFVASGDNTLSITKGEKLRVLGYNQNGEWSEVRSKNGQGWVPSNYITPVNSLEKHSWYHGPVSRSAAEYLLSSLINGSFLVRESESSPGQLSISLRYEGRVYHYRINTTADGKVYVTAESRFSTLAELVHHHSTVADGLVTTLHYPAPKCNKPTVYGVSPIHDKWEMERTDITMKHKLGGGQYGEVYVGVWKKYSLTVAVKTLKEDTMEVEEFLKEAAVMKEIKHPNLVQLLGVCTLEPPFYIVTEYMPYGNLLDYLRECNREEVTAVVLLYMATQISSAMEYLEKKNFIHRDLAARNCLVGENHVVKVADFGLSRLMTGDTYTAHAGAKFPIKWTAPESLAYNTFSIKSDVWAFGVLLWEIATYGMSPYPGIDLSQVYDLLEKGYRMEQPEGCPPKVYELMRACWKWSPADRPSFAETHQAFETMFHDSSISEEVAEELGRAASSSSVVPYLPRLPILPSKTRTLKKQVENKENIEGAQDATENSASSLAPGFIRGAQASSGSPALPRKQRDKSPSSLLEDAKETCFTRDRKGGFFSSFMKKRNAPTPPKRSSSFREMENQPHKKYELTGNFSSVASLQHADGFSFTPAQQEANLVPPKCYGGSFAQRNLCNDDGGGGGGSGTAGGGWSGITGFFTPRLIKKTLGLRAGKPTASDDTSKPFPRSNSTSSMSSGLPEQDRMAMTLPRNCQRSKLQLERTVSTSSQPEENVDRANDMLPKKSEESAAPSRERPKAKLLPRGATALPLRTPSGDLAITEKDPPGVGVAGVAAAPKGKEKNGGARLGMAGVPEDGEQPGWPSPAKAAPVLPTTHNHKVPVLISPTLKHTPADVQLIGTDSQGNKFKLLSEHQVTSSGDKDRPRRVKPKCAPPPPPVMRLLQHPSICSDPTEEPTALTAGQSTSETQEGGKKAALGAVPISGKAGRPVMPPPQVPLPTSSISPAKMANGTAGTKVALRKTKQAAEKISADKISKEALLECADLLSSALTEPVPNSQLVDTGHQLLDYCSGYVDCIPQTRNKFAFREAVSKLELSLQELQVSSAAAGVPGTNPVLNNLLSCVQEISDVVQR

[7] = target: Mitogen-activated protein kinase 11 (Homo sapiens) (UniProt Q15759); assay: Selectivity interaction (Upstate Kinase Profiler service (Millipore)) EUB0000056c MAPK11; details: at 1 µM
Chain of Mitogen-activated protein kinase 11 (Homo sapiens) (Q15759 whole entry): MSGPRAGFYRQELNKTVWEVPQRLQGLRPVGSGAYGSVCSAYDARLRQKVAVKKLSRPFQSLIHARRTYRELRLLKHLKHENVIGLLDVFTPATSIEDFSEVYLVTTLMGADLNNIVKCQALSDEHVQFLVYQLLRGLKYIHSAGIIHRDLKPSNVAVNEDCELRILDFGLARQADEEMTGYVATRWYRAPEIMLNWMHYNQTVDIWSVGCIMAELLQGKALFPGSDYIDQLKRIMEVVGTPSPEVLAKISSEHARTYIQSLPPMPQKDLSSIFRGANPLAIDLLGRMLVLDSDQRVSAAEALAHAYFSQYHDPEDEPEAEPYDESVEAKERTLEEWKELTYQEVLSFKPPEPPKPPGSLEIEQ

[8] = target: T2, Tyrosine-protein kinase ABL2; assay: Selectivity interaction (ActivX KiNativ screen (kinase selectivity in THP-1 cell lysates)) EUB0000639a ABL2; type: subcellular; details: lysate, at 5 µM
[9] = target: Tyrosine-protein kinase JAK1 (Homo sapiens, UniProt P23458); assay: Selectivity interaction (ActivX KiNativ screen (kinase selectivity in THP-1 cell lysates)) EUB0000639a JAK1; type: subcellular; details: lysate, at 0.01 µM
[10] = target: Activin receptor type-2B (Homo sapiens) (UniProt Q13705); assay: Selectivity interaction (Kinase panel (Invitrogen)) EUB0000639a ACVR2B; details: at 200 nM
[11] = target: Serine/threonine-protein kinase Nek4 (Homo sapiens) (UniProt P51957); assay: Selectivity interaction (ProQinase) EUB0000171b NEK4
Chain of Serine/threonine-protein kinase Nek4 (Homo sapiens) (P51957 whole entry, looked up, the tested form may be a part): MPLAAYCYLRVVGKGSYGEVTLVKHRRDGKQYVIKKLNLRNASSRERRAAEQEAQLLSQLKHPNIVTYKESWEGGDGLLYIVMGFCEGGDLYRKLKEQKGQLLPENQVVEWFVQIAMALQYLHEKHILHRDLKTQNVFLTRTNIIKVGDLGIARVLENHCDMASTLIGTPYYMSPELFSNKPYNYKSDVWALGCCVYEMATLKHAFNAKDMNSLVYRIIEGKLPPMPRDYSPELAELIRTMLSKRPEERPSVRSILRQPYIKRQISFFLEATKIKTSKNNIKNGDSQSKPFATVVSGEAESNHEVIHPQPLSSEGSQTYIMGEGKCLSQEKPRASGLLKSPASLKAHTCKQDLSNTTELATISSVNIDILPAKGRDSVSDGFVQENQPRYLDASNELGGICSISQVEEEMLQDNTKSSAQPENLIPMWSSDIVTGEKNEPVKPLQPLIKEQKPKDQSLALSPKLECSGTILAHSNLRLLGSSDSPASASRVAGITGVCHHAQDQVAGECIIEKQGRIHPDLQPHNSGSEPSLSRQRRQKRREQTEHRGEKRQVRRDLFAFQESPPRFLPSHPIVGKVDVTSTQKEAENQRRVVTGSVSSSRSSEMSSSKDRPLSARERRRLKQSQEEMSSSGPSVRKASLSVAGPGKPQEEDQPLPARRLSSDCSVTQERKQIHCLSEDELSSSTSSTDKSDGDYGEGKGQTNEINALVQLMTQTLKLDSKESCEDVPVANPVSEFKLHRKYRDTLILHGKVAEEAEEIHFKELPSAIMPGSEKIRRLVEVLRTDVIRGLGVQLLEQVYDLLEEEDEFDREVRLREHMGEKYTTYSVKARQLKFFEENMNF

[12] = target: Epithelial discoidin domain-containing receptor 1 (Homo sapiens) (UniProt Q08345); details: at 10 µM
Chain of Epithelial discoidin domain-containing receptor 1 (Homo sapiens) (Q08345 whole entry, the tested form may be a part): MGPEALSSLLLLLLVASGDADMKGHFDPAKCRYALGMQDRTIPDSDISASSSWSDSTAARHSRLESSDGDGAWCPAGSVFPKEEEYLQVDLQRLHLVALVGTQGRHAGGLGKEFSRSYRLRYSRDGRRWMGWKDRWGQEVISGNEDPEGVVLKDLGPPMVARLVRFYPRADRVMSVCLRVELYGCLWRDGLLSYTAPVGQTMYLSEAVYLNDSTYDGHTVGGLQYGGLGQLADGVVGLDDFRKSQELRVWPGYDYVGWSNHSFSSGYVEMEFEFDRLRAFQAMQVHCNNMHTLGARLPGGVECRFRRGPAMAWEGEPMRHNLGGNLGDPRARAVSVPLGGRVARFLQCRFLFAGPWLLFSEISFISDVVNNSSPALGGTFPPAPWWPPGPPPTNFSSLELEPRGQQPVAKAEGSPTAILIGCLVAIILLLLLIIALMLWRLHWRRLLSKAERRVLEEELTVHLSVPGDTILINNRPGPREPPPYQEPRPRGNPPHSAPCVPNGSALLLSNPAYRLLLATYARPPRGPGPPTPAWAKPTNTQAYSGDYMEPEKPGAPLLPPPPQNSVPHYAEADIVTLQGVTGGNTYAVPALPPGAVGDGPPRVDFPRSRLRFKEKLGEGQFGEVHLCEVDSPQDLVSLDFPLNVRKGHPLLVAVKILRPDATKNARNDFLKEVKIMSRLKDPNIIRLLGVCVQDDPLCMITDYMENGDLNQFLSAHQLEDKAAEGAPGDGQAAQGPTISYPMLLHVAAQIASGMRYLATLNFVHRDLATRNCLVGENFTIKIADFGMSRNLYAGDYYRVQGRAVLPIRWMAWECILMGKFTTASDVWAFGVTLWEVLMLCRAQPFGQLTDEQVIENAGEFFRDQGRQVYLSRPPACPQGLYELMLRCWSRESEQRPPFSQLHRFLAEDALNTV

[13] = target: Microtubule-associated serine/threonine-protein kinase 1 (Homo sapiens) (UniProt Q9Y2H9); assay: Selectivity interaction (KinomeScan (DiscoverX)) EUB0000595a MAST1; details: at 10 µM
[14] = target: SRSF protein kinase 3 (Homo sapiens) (UniProt Q9UPE1); assay: Selectivity interaction (KinomeScan (DiscoverX)) EUB0000655a SRPK3; details: at 10 µM
Chain of SRSF protein kinase 3 (Homo sapiens) (Q9UPE1 whole entry): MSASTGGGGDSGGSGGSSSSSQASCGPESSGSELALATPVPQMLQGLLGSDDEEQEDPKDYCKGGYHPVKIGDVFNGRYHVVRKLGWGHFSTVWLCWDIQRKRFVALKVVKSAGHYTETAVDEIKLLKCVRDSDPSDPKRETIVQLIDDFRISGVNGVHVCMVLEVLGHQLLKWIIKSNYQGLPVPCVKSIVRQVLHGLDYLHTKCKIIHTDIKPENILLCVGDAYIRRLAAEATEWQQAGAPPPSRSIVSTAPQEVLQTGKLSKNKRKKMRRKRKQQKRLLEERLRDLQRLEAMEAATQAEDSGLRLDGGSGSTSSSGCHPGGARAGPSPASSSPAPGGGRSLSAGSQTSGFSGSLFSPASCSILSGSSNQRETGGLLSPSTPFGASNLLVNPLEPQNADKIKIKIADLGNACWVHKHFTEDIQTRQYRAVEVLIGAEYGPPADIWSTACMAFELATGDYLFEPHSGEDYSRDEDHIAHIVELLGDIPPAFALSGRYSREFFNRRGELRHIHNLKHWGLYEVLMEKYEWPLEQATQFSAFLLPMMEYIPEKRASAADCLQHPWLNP

Focal adhesion kinase 1 = Focal adhesion kinase 1 (Homo sapiens, UniProt Q05397)
[15] = target: Serine/threonine-protein kinase 32A (Homo sapiens) (UniProt Q8WU08); assay: Selectivity interaction (KinomeScan (DiscoverX)) EUB0001079a STK32A; details: at 1 µM
[16] = target: N-lysine methyltransferase SMYD2 (Homo sapiens) (UniProt Q9NRG4); details: at 1 µM
Chain of N-lysine methyltransferase SMYD2 (Homo sapiens) (Q9NRG4 whole entry): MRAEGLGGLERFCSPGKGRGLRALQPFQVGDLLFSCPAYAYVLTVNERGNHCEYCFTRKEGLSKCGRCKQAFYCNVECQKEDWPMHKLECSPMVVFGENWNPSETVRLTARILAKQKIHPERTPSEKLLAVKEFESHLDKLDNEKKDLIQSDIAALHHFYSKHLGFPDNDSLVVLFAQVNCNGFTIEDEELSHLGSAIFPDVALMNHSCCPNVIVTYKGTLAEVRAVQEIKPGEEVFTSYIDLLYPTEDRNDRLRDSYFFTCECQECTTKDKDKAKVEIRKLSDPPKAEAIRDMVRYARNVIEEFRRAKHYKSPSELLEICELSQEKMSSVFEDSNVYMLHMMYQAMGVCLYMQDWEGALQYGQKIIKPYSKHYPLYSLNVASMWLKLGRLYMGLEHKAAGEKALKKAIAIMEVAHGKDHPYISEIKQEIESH

[17] = target: Histone-lysine N-methyltransferase 2C (Homo sapiens) (UniProt Q8NEZ4); details: at 10 µM
[18] = target: T3, Serine/threonine-protein kinase Nek11 (Homo sapiens) (UniProt Q8NG66); assay: Selectivity interaction (KinomeScan (DiscoverX)) EUB0000229b NEK11; details: at 10 µM
T3 sequence (whole entry): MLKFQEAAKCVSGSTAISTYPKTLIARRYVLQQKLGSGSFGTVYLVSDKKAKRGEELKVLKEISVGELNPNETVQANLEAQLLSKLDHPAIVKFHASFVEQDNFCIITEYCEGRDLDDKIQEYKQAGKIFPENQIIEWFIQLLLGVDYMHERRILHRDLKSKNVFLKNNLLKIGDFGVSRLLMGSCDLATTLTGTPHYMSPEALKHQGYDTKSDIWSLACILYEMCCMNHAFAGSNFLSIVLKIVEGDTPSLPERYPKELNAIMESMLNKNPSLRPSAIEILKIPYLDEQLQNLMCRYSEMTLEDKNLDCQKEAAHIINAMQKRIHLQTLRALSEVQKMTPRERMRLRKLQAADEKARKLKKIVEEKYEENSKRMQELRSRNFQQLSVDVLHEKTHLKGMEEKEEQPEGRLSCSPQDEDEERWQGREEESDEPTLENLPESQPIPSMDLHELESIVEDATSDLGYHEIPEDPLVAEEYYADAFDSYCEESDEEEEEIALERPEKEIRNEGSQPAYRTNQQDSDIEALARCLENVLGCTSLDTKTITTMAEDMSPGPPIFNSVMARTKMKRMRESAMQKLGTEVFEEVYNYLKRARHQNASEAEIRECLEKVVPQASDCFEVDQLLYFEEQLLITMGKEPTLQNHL

[19] = target: Tyrosine-protein kinase FRK (Homo sapiens) (UniProt P42685); assay: Selectivity interaction (KinomeScan (DiscoverX)) EUB0001619a FRK; details: at 1 µM
Chain of Tyrosine-protein kinase FRK (Homo sapiens) (P42685 whole entry): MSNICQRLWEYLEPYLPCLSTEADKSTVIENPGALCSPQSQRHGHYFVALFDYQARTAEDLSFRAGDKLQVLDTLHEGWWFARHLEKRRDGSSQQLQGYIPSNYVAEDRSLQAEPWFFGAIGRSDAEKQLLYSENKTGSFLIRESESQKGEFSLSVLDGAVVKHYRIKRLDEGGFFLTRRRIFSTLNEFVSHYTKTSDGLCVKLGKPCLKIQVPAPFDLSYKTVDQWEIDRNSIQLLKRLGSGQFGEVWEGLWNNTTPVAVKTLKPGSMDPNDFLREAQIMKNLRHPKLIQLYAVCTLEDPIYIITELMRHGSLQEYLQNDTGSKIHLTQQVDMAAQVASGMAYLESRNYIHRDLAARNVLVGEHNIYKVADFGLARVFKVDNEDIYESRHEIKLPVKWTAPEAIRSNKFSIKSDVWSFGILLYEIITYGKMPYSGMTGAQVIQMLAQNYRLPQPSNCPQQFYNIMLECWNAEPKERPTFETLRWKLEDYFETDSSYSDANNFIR

% of inhibition [1]: -9.9%
% of inhibition [2]: -13.2%
SMILES: Cn1cc(-n2cnc3c(NCc4nc5cc(Cl)c(Cl)cc5[nH]4)nc(N4CCOCC4)nc32)cn1

% of inhibition [6]: 13%
% of inhibition [7]: 5%
SMILES: Cc1ccc(-c2ccc3c(ccc4sc5c(c43)NC[C@@H](C)NC5=O)n2)cn1

% of inhibition [8]: 30.7%
% of inhibition [9]: -2.1%
% of inhibition [10]: 5.32%
SMILES: CC[C@@H]1[C@H](F)C(=O)N[C@@H]1COc1nccc2cc(C(N)=O)c(OC)cc12 [ZIMLOVISERTIB]

% of control ([11]; at 1 µM): 79%
% of control ([11]; at 5 µM): 51%
SMILES: C=CC(=O)Nc1cccc(C(=O)Nc2ccc(Nc3cc(-c4[nH]c(SC)nc4C)ccn3)cc2)c1

% activity [16]: > 90%
% activity [17]: > 90%
SMILES: CNCCN1CCC(c2cc(CN(C)C(=O)c3cccc(Oc4ccccc4)c3)ccn2)CC1

The next lines start with the compound.

SMILES: CNC(=O)Nc1ccc(-c2nc(N3CC4CCC(C3)O4)c3cnn(C4CCC5(CC4)OCCO5)c3n2)cc1
% of control [3]: 68%
% of control [4]: 100%
% of inhibition [5]: 5%

SMILES: COCC(=O)NC/C=C/c1ccc2ncnc(Nc3ccc(Oc4ccc(C)nc4)c(C)c3)c2c1 [CP-724714]
% of control [12]: 52%
% of control [13]: 100%

SMILES: CN(C)CCOc1ccc(-c2nc(-c3ccncc3)c(-c3ccc4c(c3)CC/C4=N\O)[nH]2)cc1
% of control [14]: 100%

SMILES: CCc1cccc(CC)c1NC(=O)c1nn(C)c2c1CCc1cnc(Nc3ccc(C(=O)NC4CCN(C)CC4)cc3OC(F)(F)F)nc1-2
IC50 (Focal adhesion kinase 1): > 10 µM

SMILES: Nc1cnc(N2CCc3cc(S(=O)(=O)Nc4c(F)cc(Cl)cc4F)cc(N4CCCC4=O)c32)nc1 [TP-020n]
% of control [15]: 80%

SMILES: COc1cc(N(C)c2ccnc3ccc(C(F)(F)F)cc23)cc(OC)c1OC
% binding [18]: 91%

SMILES: N#Cc1cccc(-c2c[nH]c3ncnc(N4CCOCC4)c23)c1
% of control [19]: 88%
